Measurements as given in ChEMBL document CHEMBL4828769, “Discovery of AS-0141, a Potent and Selective Inhibitor of CDC7 Kinase for the Treatment of Solid Cancers” (J Med Chem, 2021).
pIC50: −log10 of the molar value. Activity calls are given as the source filed them. The calls are words filed in the database; no cut-off is given here.

Tests used:
[1] = target: T1, Dual specificity protein kinase CLK2 (Homo sapiens, UniProt P49760); assay: Inhibition of CLK2 (unknown origin) in presence of 1 mM ATP without preincubation
Target sequence in this assay (P49760 whole entry): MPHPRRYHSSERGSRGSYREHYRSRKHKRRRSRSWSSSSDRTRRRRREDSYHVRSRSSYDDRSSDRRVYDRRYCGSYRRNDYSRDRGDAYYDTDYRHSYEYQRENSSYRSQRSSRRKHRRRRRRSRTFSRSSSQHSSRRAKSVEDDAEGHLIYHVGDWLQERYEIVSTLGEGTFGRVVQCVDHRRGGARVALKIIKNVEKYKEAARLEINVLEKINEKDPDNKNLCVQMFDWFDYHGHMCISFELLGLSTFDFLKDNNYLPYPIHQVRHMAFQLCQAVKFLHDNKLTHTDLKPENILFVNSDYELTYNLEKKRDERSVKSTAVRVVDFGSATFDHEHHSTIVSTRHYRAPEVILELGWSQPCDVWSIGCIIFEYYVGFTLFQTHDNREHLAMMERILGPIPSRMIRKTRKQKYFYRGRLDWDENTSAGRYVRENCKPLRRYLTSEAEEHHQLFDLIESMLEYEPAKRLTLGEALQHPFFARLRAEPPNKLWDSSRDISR

[2] = target: T2, Cell division cycle 7-related protein kinase (Homo sapiens, UniProt O00311); assay: Inhibition of CDC7 in human COLO 205 cells assessed as reduction in phosphorylation of MCM2 at 1 uM preincubated for 48 hrs followed by compound washout measured after 24 hrs by Western blot analysis; type: cell-based
Target sequence in this assay (O00311 whole entry, looked up): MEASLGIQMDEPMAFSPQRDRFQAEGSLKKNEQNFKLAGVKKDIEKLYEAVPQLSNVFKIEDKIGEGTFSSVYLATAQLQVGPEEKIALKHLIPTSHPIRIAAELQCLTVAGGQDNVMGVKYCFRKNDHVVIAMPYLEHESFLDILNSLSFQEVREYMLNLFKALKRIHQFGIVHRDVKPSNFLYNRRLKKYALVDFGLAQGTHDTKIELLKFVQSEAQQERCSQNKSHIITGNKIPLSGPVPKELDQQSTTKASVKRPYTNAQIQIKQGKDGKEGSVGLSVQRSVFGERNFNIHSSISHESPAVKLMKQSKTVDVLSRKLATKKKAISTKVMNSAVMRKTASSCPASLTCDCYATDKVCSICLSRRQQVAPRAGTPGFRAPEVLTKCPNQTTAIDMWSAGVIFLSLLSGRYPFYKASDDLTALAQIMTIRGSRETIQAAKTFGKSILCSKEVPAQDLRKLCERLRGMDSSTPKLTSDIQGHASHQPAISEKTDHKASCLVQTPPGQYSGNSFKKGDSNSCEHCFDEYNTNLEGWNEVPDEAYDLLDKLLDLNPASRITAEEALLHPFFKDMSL

[3] = target: T2, Cell division cycle 7-related protein kinase; assay: Inhibition of CDC7 in human SW-620 cells assessed as reduction in phosphorylation of MCM2 at Ser40 residue incubated for 48 hrs by Western blot analysis; type: cell-based
[4] = Tmax in dog at 2 mg/kg, po; type: ADME, organism-based, Canis lupus familiaris; settings: in vivo
[5] = Metabolic stability in mouse liver microsomes assessed as parent compound remaining after 30 mins; type: ADME, Microsome; settings: liver microsomes, read-out: Stability
[6] = Protein binding in human plasma assessed as unbound fraction; type: ADME, cell-free
[7] = Half life in rat at 10 mg/kg, po; type: ADME, organism-based; settings: in vivo
[8] = target: T2, Cell division cycle 7-related protein kinase; assay: Inhibition of CDC7 in human COLO205 cells assessed as reduction in MCM2 phosphorylation at S53 residue at 0.1 uM incubated for 48 hrs by Western blot analysis relative to control; type: cell-based; settings: COLO 205
Target sequence in this assay (O00311 whole entry, looked up): as above

[9] = Inhibition of human CDC7/ASK using FITC-labelled MCM2 substrate in presence of 1 mM of ATP
[10] = Cmax in dog at 1 mg/kg, iv; type: ADME, organism-based, Canis lupus familiaris; design: route intravenous, dose 1 mg/kg; settings: in vivo
[11] = Cmax in rat at 10 mg/kg, po; type: ADME, organism-based; design: route oral, dose 10 mg/kg; settings: in vivo
[12] = target: T3, Dual specificity protein kinase CLK1 (Homo sapiens, UniProt P49759); assay: Inhibition of CLK1 (unknown origin) in presence of 1 mM ATP with preincubation
Target sequence in this assay (P49759 whole entry): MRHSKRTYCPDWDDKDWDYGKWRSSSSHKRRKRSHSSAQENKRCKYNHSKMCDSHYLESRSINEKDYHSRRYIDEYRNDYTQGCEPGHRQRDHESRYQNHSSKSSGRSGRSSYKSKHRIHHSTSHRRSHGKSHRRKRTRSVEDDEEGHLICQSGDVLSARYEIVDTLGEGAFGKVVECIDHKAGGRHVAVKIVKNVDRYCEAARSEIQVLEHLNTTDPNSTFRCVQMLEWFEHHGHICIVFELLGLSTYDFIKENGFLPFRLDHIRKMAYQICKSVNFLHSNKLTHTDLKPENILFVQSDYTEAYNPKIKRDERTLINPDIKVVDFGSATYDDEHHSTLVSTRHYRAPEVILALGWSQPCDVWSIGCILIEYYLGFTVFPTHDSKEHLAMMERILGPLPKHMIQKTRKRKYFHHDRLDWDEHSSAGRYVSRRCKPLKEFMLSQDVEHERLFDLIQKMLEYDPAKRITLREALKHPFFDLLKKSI

[13] = Oral bioavailability in dog at 2 mg/kg; type: ADME, organism-based, Canis lupus familiaris; settings: in vivo
[14] = Tmax in rat at 10 mg/kg, po; type: ADME, organism-based; settings: in vivo
[15] = species on record: Homo sapiens; assay: Selectivity index, ratio of IC50 for CLK2 (unknown origin) in presence of 1 mM ATP without preincubation to IC50 for CLK2 (unknown origin) in presence of 1 mM ATP with preincubation
[16] = Apparent permeability across apical to basolateral side in human Caco-2 cells; type: ADME, cell-based
[17] = target: T3, Dual specificity protein kinase CLK1; assay: Inhibition of CLK1 (unknown origin) in presence of 1 mM ATP without preincubation
Target sequence in this assay (P49759 whole entry): as above

[18] = Tmax in mouse at 10 mg/kg, po; type: ADME, organism-based; settings: in vivo
[19] = species on record: Homo sapiens; assay: Selectivity index, ratio of IC50 for GSK3alpha (unknown origin) in presence of 1 mM ATP without preincubation to IC50 for GSK3alpha (unknown origin) in presence of 1 mM ATP with preincubation
[20] = Metabolic stability in rat liver microsomes assessed as parent compound remaining after 30 mins; type: ADME, Microsome; settings: read-out: Stability
[21] = target: T4, Serine/threonine-protein kinase pim-1 (Homo sapiens, UniProt P11309); assay: Inhibition of PIM1 (unknown origin) in presence of 1 mM ATP without preincubation
Target sequence in this assay (P11309 whole entry): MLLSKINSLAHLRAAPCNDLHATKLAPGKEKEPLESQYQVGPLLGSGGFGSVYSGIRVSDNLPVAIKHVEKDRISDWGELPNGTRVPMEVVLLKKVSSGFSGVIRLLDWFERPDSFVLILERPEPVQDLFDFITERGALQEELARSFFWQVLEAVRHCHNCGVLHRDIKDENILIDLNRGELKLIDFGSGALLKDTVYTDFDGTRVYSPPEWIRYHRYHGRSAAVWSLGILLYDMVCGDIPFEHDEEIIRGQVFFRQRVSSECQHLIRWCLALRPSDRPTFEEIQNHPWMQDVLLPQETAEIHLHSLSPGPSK

[22] = Half life in mouse at 10 mg/kg, po; type: ADME, organism-based; settings: in vivo
[23] = tested on: SW-620; assay: Antitumor activity against human SW-620 cells xenografted in BALB/c nude mouse assessed as tumor growth inhibition at 120 mg/kg, po administered daily for 21 days; type: functional; settings: SW-620, po, 504 h, time 21 day, read-out: TGI
[24] = Cmax in rat at 2 mg/kg, iv; type: ADME, organism-based; design: route intravenous, dose 2 mg/kg; settings: in vivo
[25] = AUC(0 to infinity) in dog at 2 mg/kg, po; type: ADME, organism-based, Canis lupus familiaris; design: route oral, time infinity, dose 2 mg/kg; settings: in vivo
[26] = Volume of distribution in rat at 2 mg/kg, iv; type: ADME, organism-based; settings: in vivo
[27] = Oral bioavailability in rat at 10 mg/kg; type: ADME, organism-based; settings: in vivo
[28] = MRT in rat at 2 mg/kg, iv; type: ADME, organism-based; settings: in vivo
[29] = AUC(0 to infinity) in dog at 1 mg/kg, iv; type: ADME, organism-based, Canis lupus familiaris; design: route intravenous, time infinity, dose 1 mg/kg; settings: in vivo
[30] = AUC(0 to infinity) in mouse at 10 mg/kg, po; type: ADME, organism-based; design: time infinity, route oral, dose 10 mg/kg; settings: in vivo
[31] = Oral bioavailability in mouse at 10 mg/kg; type: ADME, organism-based; settings: in vivo
[32] = Cmax in dog at 2 mg/kg, po; type: ADME, organism-based, Canis lupus familiaris; design: route oral, dose 2 mg/kg; settings: in vivo
[33] = target: T5, Glycogen synthase kinase-3 alpha (Homo sapiens, UniProt P49840); assay: Inhibition of GSK3alpha (unknown origin) in presence of 1 mM ATP without preincubation
T5 sequence (P49840 whole entry): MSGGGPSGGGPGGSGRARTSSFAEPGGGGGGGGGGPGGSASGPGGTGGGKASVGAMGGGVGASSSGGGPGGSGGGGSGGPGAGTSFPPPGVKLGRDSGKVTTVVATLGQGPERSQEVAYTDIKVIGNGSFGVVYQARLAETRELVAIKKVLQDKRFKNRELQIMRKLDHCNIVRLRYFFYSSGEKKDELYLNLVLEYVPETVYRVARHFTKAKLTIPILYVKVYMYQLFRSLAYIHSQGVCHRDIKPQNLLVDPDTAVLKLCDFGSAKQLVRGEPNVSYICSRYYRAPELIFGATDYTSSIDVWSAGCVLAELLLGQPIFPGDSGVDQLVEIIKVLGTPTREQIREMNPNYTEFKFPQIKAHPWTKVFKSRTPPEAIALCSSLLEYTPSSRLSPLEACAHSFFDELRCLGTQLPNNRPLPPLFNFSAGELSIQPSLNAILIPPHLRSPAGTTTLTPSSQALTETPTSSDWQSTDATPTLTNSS

[34] = Metabolic stability in human liver microsomes assessed as parent compound remaining after 30 mins; type: ADME, Microsome; settings: liver microsomes, read-out: Stability
[35] = target: T1, Dual specificity protein kinase CLK2; assay: Inhibition of CLK2 (unknown origin) at 0.1 uM in presence of 1 mM ATP relative to control
Target sequence in this assay (P49760 whole entry, looked up): as the sequence (P49760 whole entry) above

[36] = Volume of distribution in dog at 1 mg/kg, iv; type: ADME, organism-based, Canis lupus familiaris; settings: in vivo
[37] = tested on: SW-620; assay: Antitumor activity against human SW-620 cells xenografted in BALB/c nude mouse assessed as tumor growth inhibition at 60 mg/kg, po administered as 4 days on and 2 days off schedule for 21 days; type: functional; settings: SW-620, po, 504 h, time 21 day, read-out: TGI
[38] = target: T4, Serine/threonine-protein kinase pim-1; assay: Inhibition of PIM1 (unknown origin) at 0.1 uM in presence of 1 mM ATP relative to control
Target sequence in this assay (P11309 whole entry, looked up): as the sequence (P11309 whole entry) above

[39] = MRT in dog at 1 mg/kg, iv; type: ADME, organism-based, Canis lupus familiaris; settings: in vivo
[40] = AUC(0 to infinity) in rat at 2 mg/kg, iv; type: ADME, organism-based; design: route intravenous, time infinity, dose 2 mg/kg; settings: in vivo
[41] = tested on: COLO 205; assay: Induction of cell cycle arrest in human COLO205 cells assessed as accumulation of cells at sub-G1 phase at 1 uM incubated for 48 hrs by propidium iodide staining based flow cytometry analysis; type: functional
[42] = target: T1, Dual specificity protein kinase CLK2; assay: Inhibition of CLK2 (unknown origin) in presence of 1 mM ATP with preincubation
Target sequence in this assay (P49760 whole entry): as the sequence (P49760 whole entry) above

[43] = target: T2, Cell division cycle 7-related protein kinase; assay: Inhibition of CDC7 in human SW-620 cells assessed as reduction in phosphorylation of MCM2 at Ser41 residue at 0.03 to 1 uM incubated for 48 hrs by Western blot analysis; type: cell-based; settings: dose 0.03-1 µM
Target sequence in this assay (O00311 whole entry, looked up): as the sequence (O00311 whole entry, looked up) above

[44] = Inhibition of human CDC7/ASK using FITC-labelled MCM2 substrate in presence of 5 uM of ATP
[45] = target: T5, Glycogen synthase kinase-3 alpha; assay: Inhibition of GSK3alpha (unknown origin) in presence of 1 mM ATP with preincubation
[46] = Inhibition of human CDC7/ASK using FITC-labelled MCM2 substrate preincubated for 30 mins followed by substrate addition and measured after 5 hrs in presence of 1 mM of ATP
[47] = species on record: Homo sapiens; assay: Selectivity index, ratio of IC50 for CLK1 (unknown origin) in presence of 1 mM ATP without preincubation to IC50 for CLK1 (unknown origin) in presence of 1 mM ATP with preincubation
[48] = target: T2, Cell division cycle 7-related protein kinase; assay: Inhibition of CDC7 in human SW-620 cells assessed as reduction in phosphorylation of MCM2 at Ser53 residue incubated for 48 hrs by Western blot analysis; type: cell-based
[49] = target: T3, Dual specificity protein kinase CLK1; assay: Inhibition of CLK1 (unknown origin) at 0.1 uM in presence of 1 mM ATP relative to control
Target sequence in this assay (P49759 whole entry, looked up): as the sequence (P49759 whole entry) above

[50] = Cmax in mouse at 10 mg/kg, po; type: ADME, organism-based; design: route oral, dose 10 mg/kg; settings: in vivo
[51] = Clearance in rat at 2 mg/kg, iv; type: ADME, organism-based; settings: in vivo

pIC50 [1]: 6.57 | inhibition [2]: Active | pIC50 [3]: 7.44 | inhibition ([3]; dose 0.03-1 µM): Dose-Dependent Effect | Tmax [4]: 2.67 h | remaining at 0.5 h [5]: 18.7% | fraction unbound [6]: 0.088 | half-life [7]: 6.1 h | inhibition [8]: 100% | pIC50 [9]: 6.30 | Cmax [10]: 298 ng/mL | Cmax [11]: 426 ng/mL | pIC50 [12]: 6.69 | bioavailability [13]: 33.3% | Tmax [14]: 1 h | Ratio IC50 [15]: 1.2 | Papp A→B [16]: 24.9 ×10⁻⁶ cm/s | pIC50 [17]: 6.67 | Tmax [18]: 4.98 min | Ratio IC50 [19]: 0.8 | remaining at 0.5 h [20]: 34.9% | pIC50 [21]: 7.52 | half-life [22]: 1.45 h | Cmax [24]: 1210 ng/mL | AUC(0-inf) [25]: 834 ng·h/mL | Vd [26]: 3.24 L/kg | bioavailability [27]: 54.4% | MRT [28]: 1.45 h | AUC(0-inf) [29]: 1250 ng·h/mL | AUC(0-inf) [30]: 454 ng·h/mL | bioavailability [31]: 30.6% | Cmax [32]: 96.1 ng/mL | pIC50 [33]: 6.72 | remaining at 0.5 h [34]: 89% | inhibition [35]: > 30% | Vd [36]: 4.22 L/kg | inhibition [38]: > 30% | MRT [39]: 5.26 h | AUC(0-inf) [40]: 887 ng·h/mL | pIC50 [42]: 6.64 | inhibition [43]: inactive | pIC50 [44]: 8.09 | pIC50 [45]: 6.60 | pIC50 [46]: 8.62 | Ratio IC50 [47]: 1 | pIC50 [48]: 7.28 | inhibition ([48]; dose 0.03-1 µM): Dose-Dependent Effect | inhibition [49]: > 30% | Cmax [50]: 285 ng/mL | clearance [51]: 37.7 mL/min/kg
Structure (SMILES): CCOC(=O)C1=C(NN2CCN(CC(F)(F)F)CC2)O/C(=C\c2c[nH]c3ncccc23)C1=O [MONZOSERTIB]
inhibition in vivo at 120 mg/kg [23]: 88% | inhibition in vivo at 60 mg/kg [37]: 83% | Activity [41]: 51%
